Patent US20080317857A1, “V-Atpase Inhibitors of Use in the Treatment of Septic Shock” (Brane Discovery S.r.l., priority 2005, published 2008)
Where two headings read alike, the source gives them in different places.

How the values were obtained:
[1] = test system: NADPH-oxidase activation (H2O2 release) in Monocytes; assay: Respiratory burst (H2O2 assay) in monocytes; assay type: cell-based, human; details: for inhibition at 0.4 µM / inhibition at 1 µM / inhibition at 25 µM / inhibition at 50 µM / inhibition at 100 µM: Homo sapiens, Monocyte, read-out: Inhibition of H2O2 release induced by PMA in Monocytes (% PMA control); for inhibition at 0.4 µM: [cpd] 0.4 μM; for inhibition at 1 µM: [cpd] 1.0 μM; for respiratory burst / NADPH-oxidase activation induced by PMA in monocytes (in words): PMA 200 ng/ml; for inhibition at 25 µM: [cpd] 25 μM; for inhibition at 50 µM: [cpd] 50 μM; for inhibition at 100 µM: [cpd] 100 μM
Experimental: (§1) NADPH-oxidase activation was measured as induction of H2O2 release (derived from dismutation of O2^−) triggered in PMNs and monocytes by PMA (200 ng/ml). Briefly, PMNs and monocytes were pretreated at 37° C. for 30-60 min with test compound at different concentrations, and stimulated with phorbol 12-myristate 13-acetate (PMA, 200 ng/ml) dissolved in 0.5 ml of a standard reaction mixture. Release of H2O2 was evaluated in real time at time points of 5 min by using a microplate fluorescence reader (Perkin-Elmer). Results are expressed as nmoles of H2O2 released over time by 10^6 cells. Shown are dose-response curves of inhibitory effect on H2O2 release over 60 min.

V-ATPase = details: cited from earlier work
[2] = test system: NADPH-oxidase activation (H2O2 release) in PMNs; assay: Respiratory burst (H2O2 assay) in PMNs; assay type: cell-based, human; details: for inhibition at 25 µM / inhibition at 50 µM / inhibition at 100 µM: Homo sapiens, read-out: Inhibition of H2O2 release induced by PMA in PMNs (% PMA control); for inhibition at 25 µM: [cpd] 25 μM; for inhibition at 50 µM: [cpd] 50 μM; for inhibition at 100 µM: [cpd] 100 μM
Experimental: as §1

rat ovariectomized model = details: cited from earlier work

C/C=C/[C@H]1O[C@@](O)([C@@H](C)[C@H](O)[C@H](C)[C@H]2OC(=O)/C(OC)=C/C(C)=C/[C@@H](C)[C@@H](O)[C@@H](CC)[C@@H](O)[C@H](C)C/C(C)=C/C=C/[C@@H]2OC)C[C@@H](O[C@H]2C[C@@H](O)[C@H](OC(N)=O)[C@@H](C)O2)[C@@H]1C [Concanamycin A1, Concanamycin A]
inhibition of the release of oxygen radicals in monocytes ([1]; 10 nM concentration): 50%
Inhibition of H2O2 release induced by PMA in Monocytes (% PMA control) ([1]; [cpd] 0.0005 μM, 30 min): 17.0%
Inhibition of H2O2 release induced by PMA in Monocytes (% PMA control) ([1]; [cpd] 0.0005 μM, 40 min): 26.3%
Inhibition of H2O2 release induced by PMA in Monocytes (% PMA control) ([1]; [cpd] 0.0005 μM, 50 min): 33.3%
Inhibition of H2O2 release induced by PMA in Monocytes (% PMA control) ([1]; [cpd] 0.001 μM, 30 min): 35.7%
Inhibition of H2O2 release induced by PMA in Monocytes (% PMA control) ([1]; [cpd] 0.001 μM, 40 min): 43.4%
Inhibition of H2O2 release induced by PMA in Monocytes (% PMA control) ([1]; [cpd] 0.001 μM, 50 min): 50.2%
inhibition of V-ATPase (in words) (V-ATPase; literature): very potent and highly specific inhibitors
inhibition of the release of oxygen radicals in PMNs ([2]; 10 nM concentration): 58%
Inhibition of H2O2 release induced by PMA in PMNs (% PMA control) ([2]; [cpd] 0.0005 μM, 30 min): 33.4%
Inhibition of H2O2 release induced by PMA in PMNs (% PMA control) ([2]; [cpd] 0.0005 μM, 40 min): 35.2%
Inhibition of H2O2 release induced by PMA in PMNs (% PMA control) ([2]; [cpd] 0.0005 μM, 50 min): 38.9%
Inhibition of H2O2 release induced by PMA in PMNs (% PMA control) ([2]; [cpd] 0.001 μM, 30 min): 36.2%
Inhibition of H2O2 release induced by PMA in PMNs (% PMA control) ([2]; [cpd] 0.001 μM, 40 min): 45.0%
Inhibition of H2O2 release induced by PMA in PMNs (% PMA control) ([2]; [cpd] 0.001 μM, 50 min): 56.4%
Inhibition of H2O2 release induced by PMA in PMNs (% PMA control) ([2]; [cpd] 0.010 μM, 30 min): 50.2%
Inhibition of H2O2 release induced by PMA in PMNs (% PMA control) ([2]; [cpd] 0.010 μM, 40 min): 58.3%
Inhibition of H2O2 release induced by PMA in PMNs (% PMA control) ([2]; [cpd] 0.010 μM, 50 min): 58.3%

O=C(Nc1cccc2c1nc(C(F)(F)F)n2CC(=O)N1CCOCC1)c1c(Cl)cccc1Cl [FR-177995]
inhibition at 0.4 µM ([1]; 0.5 h, 30 min): 27.1%
inhibition at 1 µM ([1]; 0.5 h, 30 min): 21.3%
inhibition at 0.4 µM ([1]; 40 min, 40 min): 29%
inhibition at 1 µM ([1]; 40 min, 40 min): 6.3%
inhibition at 0.4 µM ([1]; 50 min, 50 min): 26.7%
inhibition at 1 µM ([1]; 50 min, 50 min): 5.5%
respiratory burst / NADPH-oxidase activation induced by PMA in monocytes (in words) [1]: had effect
concentrations generally active in inhibiting V-ATPase (V-ATPase): 0.4 to 1 µM
anti-osteoporotic activity (rat ovariectomized model): high anti-osteoporotic activity

CCN1C(=O)C=CC1=O [NEM, N-ethylmaleimide]
inhibition at 25 µM ([1]; 0.5 h, 30 min): 100%
inhibition at 50 µM ([1]; 0.5 h, 30 min): 100%
inhibition at 100 µM ([1]; 0.5 h, 30 min): 100%
inhibition at 25 µM ([1]; 40 min, 40 min): 100%
inhibition at 50 µM ([1]; 40 min, 40 min): 100%
inhibition at 100 µM ([1]; 40 min, 40 min): 100%
inhibition at 25 µM ([1]; 50 min, 50 min): 100%
inhibition at 50 µM ([1]; 50 min, 50 min): 100%
inhibition at 100 µM ([1]; 50 min, 50 min): 100%
respiratory burst / NADPH-oxidase activation induced by PMA in monocytes (in words) [1]: completely blocked
concentrations generally active in inhibiting V-ATPase (V-ATPase): > 25 µM
inhibition at 25 µM ([2]; 0.5 h, 30 min): 100%
inhibition at 50 µM ([2]; 0.5 h, 30 min): 100%
inhibition at 100 µM ([2]; 0.5 h, 30 min): 100%
inhibition at 25 µM ([2]; 40 min, 40 min): 100%
inhibition at 50 µM ([2]; 40 min, 40 min): 100%
inhibition at 100 µM ([2]; 40 min, 40 min): 100%
inhibition at 25 µM ([2]; 50 min, 50 min): 100%
inhibition at 50 µM ([2]; 50 min, 50 min): 100%
inhibition at 100 µM ([2]; 50 min, 50 min): 100%
respiratory burst / NADPH-oxidase activation induced by PMA in PMNs (in words) ([2]; PMA 200 ng/ml): completely blocked
